Assays:
Details in all cases: incubation time: 72 h
[1] = test system: BT-474; assay: normalised viability (% of control), CellTiter-Blue; higher = more viable cells (about 100 = DMSO control)
Description: (§1)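 DSRT, CellTiter-Blue viability, 72 h incubation. Signal is normalised to DMSO and benzethonium chloride controls. Value is the normalised response at dose 3.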

[2] = test system: BT-549; assay: as above
Description: as §1

[3] = test system: CAL-120; assay: as above
Description: as §1

[4] = test system: CAL-148; assay: as above
Description: as §1

[5] = test system: CAL-51; assay: as above
Description: as §1

[6] = test system: CAL-85-1; assay: as above
Description: as §1

[7] = test system: DU-4475; assay: as above
Description: as §1

[8] = test system: HCC1143; assay: as above
Description: as §1

[9] = test system: HCC1599; assay: as above
Description: as §1

[10] = test system: HCC1937; assay: as above
Description: as §1

[11] = test system: HDQ-P1; assay: as above
Description: as §1

[12] = test system: Hs578T; assay: as above
Description: as §1

[13] = test system: MDA-MB-231; assay: as above
Description: as §1

[14] = test system: MDA-MB-436; assay: as above
Description: as §1

[15] = test system: MDA-MB-453; assay: as above
Description: as §1

[16] = test system: MDA-MB-468; assay: as above
Description: as §1

[17] = test system: MFM-223; assay: as above
Description: as §1

[18] = test system: SK-BR-3; assay: as above
Description: as §1

[19] = test system: BT-474; assay: drug sensitivity score (DSS), CellTiter-Glo (DSS (AUC-based score)); higher = stronger drug effect (viability inhibition or cytotoxicity); extreme values may be limits of the assay
Outline: (§2)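 In 384-well plates, compound was laid out at 5 concentrations in 10-fold steps over a 10,000-fold range specific to each compound, and breast cancer cell lines were seeded on top in 20 µl suspension for a 72 h incubation. CellTox Green fluorescence and then CellTiter-Glo luminescence were read, and each plate was normalised to 0.1 % DMSO and a positive kill control. The drug sensitivity score was calculated from the area under the fitted dose-response curve.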

[20] = test system: BT-549; assay: as above
Outline: as §2

[21] = test system: CAL-120; assay: as above
Outline: as §2

[22] = test system: CAL-148; assay: as above
Outline: as §2

[23] = test system: CAL-51; assay: as above
Outline: as §2

[24] = test system: CAL-85-1; assay: as above
Outline: as §2

[25] = test system: HCC1599; assay: as above
Outline: as §2

[26] = test system: HCC1937; assay: as above
Outline: as §2

[27] = test system: HDQ-P1; assay: as above
Outline: as §2

[28] = test system: MDA-MB-436; assay: as above
Outline: as §2

[29] = test system: MDA-MB-468; assay: as above
Outline: as §2

Row | SMILES | normalised viability ([1]; 10 nM) [%] | normalised viability ([2]; 10 nM) [%] | normalised viability ([3]; 10 nM) [%] | normalised viability ([4]; 1 nM) [%] | normalised viability ([5]; 1 nM) [%] | normalised viability ([6]; 1 nM) [%] | normalised viability ([7]; 1 nM) [%] | normalised viability ([8]; 10 nM) [%] | normalised viability ([9]; 10 nM) [%] | drug sensitivity score [19] | drug sensitivity score [20] | drug sensitivity score [21] | drug sensitivity score [22] | drug sensitivity score [23] | drug sensitivity score [24] | drug sensitivity score [25] | drug sensitivity score [26] | drug sensitivity score [27] | drug sensitivity score [28] | drug sensitivity score [29] | also measured
1 | NC(=O)Nc1cc(-c2cccc(F)c2)sc1C(=O)N[C@H]1CCCNC1 [AZD 7762] | 124 | 120 | 114 | 105 | 100 | 99.8 | 113 | 105 | 101 |  |  |  |  |  |  |  |  |  |  |  | normalised viability ([10]; 10 nM): 105%; normalised viability ([11]; 1 nM): 115%; normalised viability ([12]; 10 nM): 104%; normalised viability ([13]; 10 nM): 114%; normalised viability ([14]; 10 nM): 96.1%; normalised viability ([15]; 1 nM): 104%; normalised viability ([16]; 10 nM): 107%; normalised viability ([17]; 10 nM): 96.2%; normalised viability ([18]; 10 nM): 97.6%
2 | Cc1ccc(C(=O)Nc2ccc(CN3CCN(C)CC3)c(C(F)(F)F)c2)cc1C#Cc1cnc2cccnn12 [Ponatinib] | 103 | 107 | 105 | 103 | 96.6 | 95.9 | 105 | 100 | 114 |  |  |  |  |  |  |  |  |  |  |  | normalised viability ([10]; 10 nM): 91.6%; normalised viability ([11]; 1 nM): 117%; normalised viability ([12]; 10 nM): 99.6%; normalised viability ([13]; 10 nM): 101%; normalised viability ([14]; 10 nM): 101%; normalised viability ([15]; 1 nM): 110%; normalised viability ([16]; 10 nM): 110%; normalised viability ([17]; 10 nM): 65.5%; normalised viability ([18]; 10 nM): 78%
3 | CCCCCCCCCCCCCCCCCCOP(=O)([O-])OC1CC[N+](C)(C)CC1 [Perifosine] |  |  |  |  |  |  |  |  |  | 0 | 0 | 0 | 0 | 0 | 0 | 0 | 0.853 | 0 | 0.0848 | 0 | 
4 | CS(=O)(=O)c1ccc(C2=C(c3ccccc3)C(=O)OC2)cc1 [Rofecoxib] |  |  |  |  |  |  |  |  |  | 0 | 0 | 0 | 0 | 0.464 | 0 | 0 | 0 | 0 | 0 | 0 | 
5 | N#CCNC(=O)c1ccc(-c2ccnc(Nc3ccc(N4CCOCC4)cc3)n2)cc1 [Momelotinib] |  |  |  |  |  |  |  |  |  | 4.25 | 6.02 | 5.07 | 0 | 0 | 4.3 | 0 | 0 | 0 | 0 | 5.4 | 
6 | CCN(CCCOc1ccc2c(Nc3cc(CC(=O)Nc4cccc(F)c4)[nH]n3)ncnc2c1)CCOP(=O)(O)O [Barasertib] | 90.2 | 96.8 | 88.1 | 102 | 96 | 95.5 | 102 | 111 | 101 |  |  |  |  |  |  |  |  |  |  |  | normalised viability ([10]; 10 nM): 101%; normalised viability ([11]; 1 nM): 111%; normalised viability ([12]; 10 nM): 87.9%; normalised viability ([13]; 10 nM): 102%; normalised viability ([14]; 10 nM): 113%; normalised viability ([15]; 1 nM): 108%; normalised viability ([16]; 10 nM): 99.4%; normalised viability ([17]; 10 nM): 93.4%; normalised viability ([18]; 10 nM): 68.3%
7 | CC(=O)Nc1ccc(C(=O)Nc2ccccc2N)cc1 [CI-994] | 106 | 96.9 | 114 | 98.1 | 94 | 91.7 | 93.9 | 111 | 108 |  |  |  |  |  |  |  |  |  |  |  | normalised viability ([10]; 10 nM): 108%; normalised viability ([11]; 1 nM): 113%; normalised viability ([12]; 10 nM): 97.8%; normalised viability ([13]; 10 nM): 103%; normalised viability ([14]; 10 nM): 94.2%; normalised viability ([15]; 1 nM): 113%; normalised viability ([16]; 10 nM): 108%; normalised viability ([17]; 10 nM): 97.5%; normalised viability ([18]; 10 nM): 78.2%
8 | O=C(CCCCCCC(=O)Nc1ccc([C@H]2O[C@@H](CSc3nc(-c4ccccc4)c(-c4ccccc4)o3)C[C@@H](c3ccc(CO)cc3)O2)cc1)NO [Tubacin] |  |  |  |  |  |  |  |  |  | 4.89 | 2.95 | 4.36 | 0.986 | 5.04 | 7.14 | 4.67 | 3.76 | 2.55 | 0 | 8.6 | 
9 | COc1cc2ncnc(Nc3ccc(F)c(Cl)c3)c2cc1NC(=O)/C=C/CN1CCCCC1 [Dacomitinib] |  |  |  |  |  |  |  |  |  | 0.458 | 1.11 | 0 | 0 | 0 | 8.62 | 0 | 0 | 8.45 | 0.907 | 3.31 | 
10 | NCC(=O)CCC(=O)O [Aminolevulinic acid] |  |  |  |  |  |  |  |  |  |  |  |  |  |  |  |  |  |  |  |  | normalised viability ([1]; 100 nM): 114%; normalised viability ([2]; 100 nM): 104%; normalised viability ([3]; 100 nM): 99.7%; normalised viability ([4]; 10 nM): 104%; normalised viability ([5]; 10 nM): 101%; normalised viability ([6]; 10 nM): 98.4%; normalised viability ([7]; 10 nM): 104%; normalised viability ([8]; 100 nM): 88.9%; normalised viability ([9]; 100 nM): 87.9%; normalised viability ([10]; 100 nM): 91%; normalised viability ([11]; 10 nM): 100%; normalised viability ([12]; 100 nM): 101%; normalised viability ([13]; 100 nM): 110%; normalised viability ([14]; 100 nM): 104%; normalised viability ([15]; 10 nM): 99.1%; normalised viability ([16]; 100 nM): 103%; normalised viability ([17]; 100 nM): 91.7%; normalised viability ([18]; 100 nM): 99%
11 | NC(=O)Nc1cc(-c2cccc(F)c2)sc1C(=O)N[C@H]1CCCNC1 [AZD7762] |  |  |  |  |  |  |  |  |  | 4.13 | 8.18 | 2.9 | 0 | 1.07 | 9.45 | 6.96 | 2.78 | 3.06 | 5.18 | 1.93 | 
